# Measured values: PubChem BioAssay (NCI)
#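 Protocol summary: plate cells (96-well), add compound at 5 concentrations, incubate 48 h, interpolate endpoints linearly. Abbreviation: GI50, concentration required for 50% inhibition of growth. TGI: total growth inhibition.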
# Columns and labels:
# Assay in all cases: DTP human tumour cell line panel, 48 h
# M14 melanoma = test system: M14 melanoma
# SK-MEL-28 melanoma = test system: SK-MEL-28 melanoma
# TK-10 renal = test system: TK-10 renal
# DMS 114 small cell lung = test system: DMS 114 small cell lung
# SN12C renal = test system: SN12C renal
# 786-0 renal = test system: 786-0 renal
# IGROV1 ovarian = test system: IGROV1 ovarian
# U251 CNS = test system: U251 CNS
# UO-31 renal = test system: UO-31 renal
# MALME-3M melanoma = test system: MALME-3M melanoma
# M19-MEL melanoma = test system: M19-MEL melanoma
# MOLT-4 leukemia = test system: MOLT-4 leukemia
# LOX IMVI melanoma = test system: LOX IMVI melanoma
# DLD-1 colon = test system: DLD-1 colon
# HOP-92 NSCLC = test system: HOP-92 NSCLC
# KM20L2 colon = test system: KM20L2 colon
# RXF 393 renal = test system: RXF 393 renal
# CAKI-1 renal = test system: CAKI-1 renal
# RPMI-8226 leukemia = test system: RPMI-8226 leukemia
# ACHN renal = test system: ACHN renal
# SNB-78 CNS = test system: SNB-78 CNS
# CCRF-CEM leukemia = test system: CCRF-CEM leukemia
# COLO 205 colon = test system: COLO 205 colon
# UACC-62 melanoma = test system: UACC-62 melanoma
# HCT-15 colon = test system: HCT-15 colon
# A549 NSCLC = test system: A549 NSCLC
# HT29 colon = test system: HT29 colon
# HL-60(TB) leukemia = test system: HL-60(TB) leukemia
# A498 renal = test system: A498 renal
# UACC-257 melanoma = test system: UACC-257 melanoma
# EKVX NSCLC = test system: EKVX NSCLC
# HOP-62 NSCLC = test system: HOP-62 NSCLC
# HCC-2998 colon = test system: HCC-2998 colon
# SF-539 CNS = test system: SF-539 CNS
# RXF-631 renal = test system: RXF-631 renal
# NCI-H23 lung = test system: NCI-H23 lung
# SNB-19 CNS = test system: SNB-19 CNS
# OVCAR-8 ovarian = test system: OVCAR-8 ovarian
# SF-268 CNS = test system: SF-268 CNS
# LXFL 529 NSCLC = test system: LXFL 529 NSCLC
# OVCAR-3 ovarian = test system: OVCAR-3 ovarian
# OVCAR-5 ovarian = test system: OVCAR-5 ovarian
# SF-295 CNS = test system: SF-295 CNS
# K-562 leukemia = test system: K-562 leukemia
# SK-OV-3 ovarian = test system: SK-OV-3 ovarian
# XF 498 CNS = test system: XF 498 CNS
# SW-620 colon = test system: SW-620 colon
# HOP-18 NSCLC = test system: HOP-18 NSCLC
# NCI-H226 lung = test system: NCI-H226 lung
# OVCAR-4 ovarian = test system: OVCAR-4 ovarian
# SK-MEL-5 melanoma = test system: SK-MEL-5 melanoma
# DU-145 prostate = test system: DU-145 prostate
# MDA-MB-435 = test system: MDA-MB-435
# BT-549 breast = test system: BT-549 breast
# SR leukemia = test system: SR leukemia
# PC-3 prostate = test system: PC-3 prostate
# MCF7 breast = test system: MCF7 breast
# HCT-116 colon = test system: HCT-116 colon
# T-47D breast = test system: T-47D breast
# SK-MEL-2 melanoma = test system: SK-MEL-2 melanoma
# HS 578T breast = test system: HS 578T breast
# NCI-H522 lung = test system: NCI-H522 lung
# SNB-75 CNS = test system: SNB-75 CNS
# MDA-N = test system: MDA-N
# NCI/ADR-RES ovarian = test system: NCI/ADR-RES ovarian
# NCI-H460 lung = test system: NCI-H460 lung
smiles,measurement,setting,value
Cc1nc2ccccn2c1N=Nc1ccc(C(=O)NN)cc1,TGI,M14 melanoma,> 100 µM
same,TGI,SK-MEL-28 melanoma,> 100 µM
same,TGI,TK-10 renal,> 100 µM
same,TGI,DMS 114 small cell lung,> 100 µM
same,TGI,SN12C renal,> 100 µM
same,TGI,786-0 renal,> 100 µM
same,TGI,IGROV1 ovarian,89.7 µM
same,TGI,U251 CNS,> 100 µM
same,TGI,UO-31 renal,> 100 µM
same,TGI,MALME-3M melanoma,> 100 µM
same,TGI,M19-MEL melanoma,> 100 µM
same,TGI,MOLT-4 leukemia,40.8 µM
same,TGI,LOX IMVI melanoma,> 100 µM
same,TGI,DLD-1 colon,> 100 µM
same,TGI,HOP-92 NSCLC,> 100 µM
same,TGI,KM20L2 colon,> 100 µM
same,TGI,RXF 393 renal,60.1 µM
same,TGI,CAKI-1 renal,> 100 µM
same,TGI,RPMI-8226 leukemia,> 100 µM
same,TGI,ACHN renal,> 100 µM
same,TGI,SNB-78 CNS,> 100 µM
same,TGI,CCRF-CEM leukemia,30.6 µM
same,TGI,COLO 205 colon,> 100 µM
same,TGI,UACC-62 melanoma,> 100 µM
same,TGI,HCT-15 colon,> 100 µM
same,TGI,A549 NSCLC,> 100 µM
same,TGI,HT29 colon,> 100 µM
same,TGI,HL-60(TB) leukemia,> 100 µM
same,TGI,A498 renal,> 100 µM
same,TGI,UACC-257 melanoma,> 100 µM
same,TGI,EKVX NSCLC,> 100 µM
same,TGI,HOP-62 NSCLC,> 100 µM
same,TGI,HCC-2998 colon,> 100 µM
same,TGI,SF-539 CNS,> 100 µM
same,TGI,RXF-631 renal,> 100 µM
same,TGI,NCI-H23 lung,> 100 µM
same,TGI,SNB-19 CNS,> 100 µM
same,TGI,OVCAR-8 ovarian,> 100 µM
same,TGI,SF-268 CNS,> 100 µM
same,TGI,LXFL 529 NSCLC,> 100 µM
same,TGI,OVCAR-3 ovarian,> 100 µM
same,TGI,OVCAR-5 ovarian,> 100 µM
same,TGI,SF-295 CNS,> 100 µM
same,TGI,K-562 leukemia,> 100 µM
same,TGI,SK-OV-3 ovarian,> 100 µM
same,TGI,XF 498 CNS,> 100 µM
same,TGI,SW-620 colon,> 100 µM
same,TGI,HOP-18 NSCLC,> 100 µM
same,TGI,NCI-H226 lung,> 100 µM
same,TGI,OVCAR-4 ovarian,> 100 µM
same,TGI,SK-MEL-5 melanoma,69.1 µM
COC1/C=C\C=C(/C)C(=O)NC2=CC(=O)C(N)=C(CC(C)CC(OC)C(O)C(C)C=C(C)C1OC(N)=O)C2=O (stereo not drawn),GI50,M14 melanoma,0.0379 µM
same,TGI,M14 melanoma,33.4 µM
same,GI50,SK-MEL-28 melanoma,0.0513 µM
same,TGI,SK-MEL-28 melanoma,> 73.8 µM
same,TGI,TK-10 renal,> 77.2 µM
same,GI50,DU-145 prostate,0.067 µM
same,TGI,DU-145 prostate,31.7 µM
same,GI50,MDA-MB-435,0.051 µM
same,TGI,MDA-MB-435,14.9 µM
same,GI50,BT-549 breast,0.0806 µM
same,TGI,BT-549 breast,> 45.2 µM
same,TGI,SN12C renal,29 µM
same,TGI,786-0 renal,> 100 µM
same,TGI,IGROV1 ovarian,25.9 µM
same,GI50,U251 CNS,0.0822 µM
same,TGI,U251 CNS,> 48.9 µM
same,TGI,UO-31 renal,40.4 µM
same,TGI,MALME-3M melanoma,15.4 µM
same,TGI,M19-MEL melanoma,12.5 µM
same,TGI,MOLT-4 leukemia,48.7 µM
same,GI50,SR leukemia,< 0.01 µM
same,TGI,SR leukemia,1.64 µM
same,GI50,LOX IMVI melanoma,0.0761 µM
same,TGI,LOX IMVI melanoma,1.55 µM
same,TGI,DLD-1 colon,17.7 µM
same,TGI,KM20L2 colon,0.0192 µM
same,TGI,RXF 393 renal,> 94.7 µM
same,TGI,PC-3 prostate,> 75.7 µM
same,TGI,CAKI-1 renal,> 89.8 µM
same,TGI,RPMI-8226 leukemia,65.4 µM
same,TGI,ACHN renal,83.5 µM
same,TGI,SNB-78 CNS,91.1 µM
same,TGI,CCRF-CEM leukemia,35.8 µM
same,TGI,MCF7 breast,37.6 µM
same,GI50,COLO 205 colon,0.0614 µM
same,TGI,COLO 205 colon,0.0507 µM
same,GI50,UACC-62 melanoma,0.0322 µM
same,TGI,UACC-62 melanoma,18.4 µM
same,TGI,HCT-15 colon,31.5 µM
same,TGI,A549 NSCLC,40.9 µM
same,TGI,HCT-116 colon,25.3 µM
same,GI50,HT29 colon,0.0337 µM
same,TGI,HT29 colon,> 63.7 µM
same,TGI,T-47D breast,33.7 µM
same,TGI,HL-60(TB) leukemia,19.3 µM
same,TGI,A498 renal,> 96.4 µM
same,TGI,UACC-257 melanoma,14.5 µM
same,TGI,EKVX NSCLC,63 µM
same,TGI,HOP-62 NSCLC,> 78 µM
same,TGI,HCC-2998 colon,1.74 µM
same,TGI,SK-MEL-2 melanoma,14.9 µM
same,GI50,SF-539 CNS,0.0397 µM
same,TGI,SF-539 CNS,> 44.4 µM
same,TGI,RXF-631 renal,> 100 µM
same,GI50,NCI-H23 lung,0.0375 µM
same,TGI,NCI-H23 lung,21.5 µM
same,TGI,HS 578T breast,59.4 µM
same,TGI,SNB-19 CNS,93.7 µM
same,TGI,OVCAR-8 ovarian,33.9 µM
same,TGI,SF-268 CNS,68.6 µM
same,TGI,NCI-H522 lung,0.392 µM
same,TGI,LXFL 529 NSCLC,> 100 µM
same,TGI,SNB-75 CNS,11.3 µM
same,TGI,OVCAR-3 ovarian,20.2 µM
same,GI50,MDA-N,0.0829 µM
same,TGI,MDA-N,12.6 µM
same,TGI,OVCAR-5 ovarian,39.7 µM
same,TGI,NCI/ADR-RES ovarian,> 100 µM
same,TGI,SF-295 CNS,> 62.2 µM
same,GI50,K-562 leukemia,0.0982 µM
same,TGI,K-562 leukemia,> 69.6 µM
same,GI50,SK-OV-3 ovarian,0.0822 µM
same,TGI,SK-OV-3 ovarian,> 100 µM
same,TGI,XF 498 CNS,24.8 µM
same,GI50,SW-620 colon,0.0468 µM
same,TGI,SW-620 colon,17.4 µM
same,TGI,HOP-18 NSCLC,32.4 µM
same,TGI,NCI-H226 lung,> 100 µM
same,TGI,OVCAR-4 ovarian,36.9 µM
same,TGI,SK-MEL-5 melanoma,15.8 µM
same,GI50,NCI-H460 lung,0.0459 µM
same,TGI,NCI-H460 lung,> 54.7 µM
